These results are taken from publication PMC6044610 (ACS Omega, 2016).

The subject of assay [1] is P. falciparum (CQ-resistant) W2 strain. As to the kind of experiment: In vitro antimalarial SYBR Green I fluorescence assay, Pf W2. The conditions noted are these: Plasmodium falciparum, W2, 72 h, read-out: IC50 Pf W2. Type of assay: cell-based.
For assay [2] the following is noted: cited from earlier work.
For assay [3], the system named is P. falciparum (3D7) trophozoite development. Type of assay: cell-based, Plasmodium falciparum. The conditions noted are these: 5 μM, ~24 h treatment from midring stage.

As a reminder, the IC50 is the concentration that inhibits the measured activity by half. In the case of `CCN(CC)CCCC(C)Nc1ccnc2cc(Cl)ccc12` (stereo not drawn) [CQ, chloroquine], the IC50 in assay [1] is 430.6 ± 1.05 nM. The “log Kass with heme, reported value” in assay [2] is on record as 5.15. For the same compound, the “hemozoin in the food vacuole / parasite development after treatment” value in assay [3] is “no hemozoin was seen in the food vacuole”.
